Assay results from ChEMBL document CHEMBL6114980, “Single or double lipid-modified ultra-short antimicrobial peptides for treating infections caused by resistant bacteria” (Eur J Med Chem, 2025).
≈ marks a conversion by molar mass, not a printed value. Calls of active or inactive are those of the source. The rule behind the calls is not given here. Peptide text beside a SMILES is read from it. * marks the point of attachment. Lauroyl = CCCCCCCCCCCC(=O)*; Octanoyl = CCCCCCCC(=O)*

Legend:
Pseudomonas aeruginosa [1] = assay: Antibacterial activity against Pseudomonas aeruginosa 6434N assessed as reduction in bacterial growth incubated for 18 to 24 hrs by broth microdilution method; format: functional; conditions: time 18-24 hrs
Bacillus subtilis = assay: Antibacterial activity against Bacillus subtilis ATCC 23857 assessed as reduction in bacterial growth incubated for 18 to 24 hrs by broth microdilution method; format: functional; conditions: time 18-24 hrs
Staphylococcus aureus [2] = assay: Additive antibacterial activity against Staphylococcus aureus 113 assessed as fractional inhibitory in presence of cephalothin by checker board assay; format: functional
Lipopolysaccharide (LPS) = assay: Binding affinity to LPS (unknown origin) assessed as reduction in bacterial mortality at 2 times MIC preincubated with LPS for 1 hr followed by bacteria addition for 24 hrs by spectrophotometric analysis
Enterococcus faecalis = assay: Antibacterial activity against Enterococcus faecalis ATCC 29212 assessed as reduction in bacterial growth incubated for 18 to 24 hrs by broth microdilution method; format: functional; conditions: time 18-24 hrs
Staphylococcus aureus [3] = assay: Antibacterial activity against methicillin resistant Staphylococcus aureus infected in male BALB/c mouse model of skin wound infection assessed as reduction in wound area at 2 mg/kg, ip measured after 6 to 36 hrs postinfection; format: functional, organism-based; conditions: time 6-36 hrs
[4] = Stability in mouse serum assessed as retention time measured after 1 hr by RP-HPLC analysis; format: ADME, cell-free
Staphylococcus aureus [5] = assay: Bactericidal activity against Staphylococcus aureus assessed as bacterial mortality rate at 2 times MIC preincubated with LTA for 1 hr followed by bacteria addition for 24 hrs by spectrophotometric analysis relative to control; format: functional
Cell membrane [6] = assay: Induction of inner membrane permeabilization in Escherichia coli at 4 times MIC measured for 135 mins by absorbance based analysis
Acinetobacter baumannii = assay: Antibacterial activity against Acinetobacter baumannii 5444 assessed as reduction in bacterial growth incubated for 18 to 24 hrs by broth microdilution method; format: functional; conditions: time 18-24 hrs
Staphylococcus aureus [7] = assay: Antibacterial activity against methicillin-resistant Staphylococcus aureus 75 assessed as reduction in bacterial growth incubated for 18 to 24 hrs by broth microdilution method; format: functional; conditions: time 18-24 hrs
Klebsiella pneumoniae [8] = assay: Induction of morphological changes in Klebsiella pneumoniae assessed as cell adhesion at 2 times MIC measured after 30 mins by SEM analysis; format: functional, organism-based
Staphylococcus aureus [9] = assay: Antibacterial activity against Staphylococcus aureus 125 assessed as reduction in bacterial growth incubated for 18 to 24 hrs by broth microdilution method; format: functional; conditions: time 18-24 hrs
Staphylococcus aureus [10] = assay: Synergistic antibacterial activity against Staphylococcus aureus 25923 measured after 18 hrs in presence of streptomycin by absorbance based analysis; format: functional, organism-based
Klebsiella pneumoniae [11] = assay: Induction of morphological changes in Klebsiella pneumoniae assessed as cell contraction at 2 times MIC measured after 30 mins by SEM analysis; format: functional, organism-based
Staphylococcus aureus [12] = assay: Bactericidal activity against Staphylococcus aureus 25923 assessed as eradication of bacteria at 2 times MIC measured within 1 hr by time-kill assay; format: functional, organism-based
Pseudomonas aeruginosa [13] = assay: Antibacterial activity against Pseudomonas aeruginosa 124 assessed as reduction in bacterial growth incubated for 18 to 24 hrs by broth microdilution method; format: functional; conditions: time 18-24 hrs
Cell membrane [14] = assay: Induction of inner membrane permeabilization in Escherichia coli at 2 times MIC measured for 135 mins by absorbance based analysis
Staphylococcus aureus [15] = assay: Synergistic antibacterial activity against methicillin-resistant Staphylococcus aureus assessed as fractional inhibitory in presence of polymyxin B by checker board assay; format: functional
Escherichia coli [16] = assay: Induction of cell membrane disruption in Escherichia coli assessed as PI uptake at 4 times MIC measured after 120 mins by PI staining based flow cytometry analysis (Rvb =<10 %); format: functional; conditions: 2 h
Staphylococcus aureus [17] = assay: Antibacterial activity against methicillin resistant Staphylococcus aureus infected in male BALB/c mouse model of skin wound infection assessed as reduction in wound area at 2 mg/kg, ip measured after 10 days post infection relative to control; format: functional; set-up: scale not given: the % may be the effect or the level left; conditions: time 10 day
Escherichia coli [18] = assay: Antibacterial activity against Escherichia coli ATCC 25922 assessed as reduction in bacterial growth incubated for 18 to 24 hrs by broth microdilution method; format: functional; conditions: time 18-24 hrs
Pseudomonas aeruginosa [19] = assay: Antibacterial activity against Pseudomonas aeruginosa ATCC 27853 assessed as reduction in bacterial growth incubated for 18 to 24 hrs by broth microdilution method; format: functional; conditions: time 18-24 hrs
Staphylococcus aureus [20] = assay: Antibacterial activity against methicillin resistant Staphylococcus aureus infected in male BALB/c mouse model of skin wound infection assessed as healthy development of hair follicles at 2 mg/kg, ip measured after 10 days post infection; format: functional, organism-based; conditions: time 10.0 day
Escherichia coli [21] = assay: Induction of cell membrane disruption in Escherichia coli assessed as PI uptake at 2 times MIC measured after 120 mins by PI staining based flow cytometry analysis (Rvb =<10 %); format: functional; conditions: 2 h
Escherichia coli [22] = assay: Antibacterial activity against Escherichia coli assessed as reduction in survival bacterial growth in presence of ZnCl2 measured after 18 to 24 hrs (reference value: 8 microM); format: functional; conditions: time 18-24 hrs
Escherichia coli [23] = assay: Antibacterial activity against Escherichia coli assessed as reduction in survival bacterial growth in presence of KCl measured after 18 to 24 hrs (reference value: 8 microM); format: functional; conditions: time 18-24 hrs
Klebsiella pneumoniae [24] = assay: Antibacterial activity against Klebsiella pneumoniae ATCC 700603 infected in male BALB/c mouse lung infection model assessed as reduction in number of inflammatory cells at 5 mg/kg, ip measured after 6 to 36 hrs; format: functional, organism-based; conditions: time 6-36 hrs
Staphylococcus aureus [25] = assay: Induction of morphological changes in Staphylococcus aureus assessed as cell aggregation adhesion at 2 times MIC measured after 120 mins by SEM analysis; format: functional, organism-based
Staphylococcus aureus [26] = assay: Antibacterial activity against Staphylococcus aureus 113 assessed as reduction in bacterial growth incubated for 18 to 24 hrs by broth microdilution method; format: functional; conditions: time 18-24 hrs
Staphylococcus aureus [27] = assay: Additive antibacterial activity against methicillin-resistant Staphylococcus aureus assessed as fractional inhibitory in presence of cephalothin by checker board assay; format: functional
Staphylococcus aureus [28] = assay: Antibacterial activity against Staphylococcus aureus ATCC 25923 assessed as reduction in bacterial growth incubated for 18 to 24 hrs by broth microdilution method; format: functional; conditions: time 18-24 hrs
Cell membrane [29] = assay: Induction of outer membrane permeabilization in Escherichia coli assessed as increase in fluorescence intensity measured for 10 mins by fluorescence based NPN uptake assay
Staphylococcus aureus [30] = assay: Synergistic antibacterial activity against methicillin-resistant Staphylococcus aureus measured after 18 hrs in presence of polymyxin B by absorbance based analysis; format: functional, organism-based
Staphylococcus aureus [31] = assay: Antibacterial activity against methicillin resistant Staphylococcus aureus infected in male BALB/c mouse model of skin wound infection assessed as healthy development of sebaceous glands at 2 mg/kg, ip measured after 10 days post infection; format: functional, organism-based; conditions: time 10.0 day
Klebsiella pneumoniae [32] = assay: Induction of morphological changes in Klebsiella pneumoniae assessed as cell aggregation at 2 times MIC measured after 30 mins by SEM analysis; format: functional, organism-based
Staphylococcus aureus [33] = assay: Synergistic antibacterial activity against methicillin-resistant Staphylococcus aureus measured after 18 hrs in presence of streptomycin by absorbance based analysis; format: functional, organism-based
Escherichia coli [34] = assay: Antibacterial activity against Escherichia coli assessed as reduction in survival bacterial growth in presence of FeCl3 measured after 18 to 24 hrs (reference value: 8 microM); format: functional; conditions: time 18-24 hrs
[35] = Stability in mouse serum assessed as half life measured after 1 hr by HPLC analysis; format: ADME, cell-free
[36] = Potency index, ratio of polymyxin B to test compound for acute toxicity in BALB/c mouse assessed lethal dose administered as ip dose measured for 7 days; format: organism-based; conditions: in vivo, 168 h, time 7 day

Row | Compound | MIC (Pseudomonas aeruginosa [1]) [µM] | MIC (Bacillus subtilis) [µM] | fractional inhibitory concentration index (FICI) (Staphylococcus aureus [2]) | Activity (Lipopolysaccharide (LPS)) | MIC (Enterococcus faecalis) [µM] | Activity (Staphylococcus aureus [3]) | Retention_time [4] [min] | Activity (Staphylococcus aureus [5]) [%] | Activity (Cell membrane [6]) | MIC (Acinetobacter baumannii) [µM] | MIC (Staphylococcus aureus [7]) [µM] | Activity (Klebsiella pneumoniae [8]) | MIC (Staphylococcus aureus [9]) [µM] | Activity (Staphylococcus aureus [10]) | Activity (Klebsiella pneumoniae [11]) | Activity (Staphylococcus aureus [12]) | MIC (Pseudomonas aeruginosa [13]) [µM] | Activity (Cell membrane [14]) | fractional inhibitory concentration index (FICI) (Staphylococcus aureus [15]) | Activity (Escherichia coli [16]) [%] | other results
1 | CCCCCCCCCCCC(=O)N[C@@H](CCCCN)C(=O)N[C@@H](CCCCN)C(=O)N[C@@H](Cc1c[nH]c2ccccc12)C(=O)N[C@@H](Cc1c[nH]c2ccccc12)C(N)=O (Lauroyl-KKWW-NH2) | 8 (≈ 6.62 µg/mL) | 2 (≈ 1.66 µg/mL) | 0.562 | Active | 8 (≈ 6.62 µg/mL) | Active | 19.718 | >50 | Active; Compound Showed Stronger Effect Than Positive Control 0.1% Tritonx-100 | 16 (≈ 13.2 µg/mL) | 4 (≈ 3.31 µg/mL) | Active | 4 (≈ 3.31 µg/mL) | Active | Active | Active | 8 (≈ 6.62 µg/mL) | Active; Compound Showed Higher Permeability Than Positive Control 0.1% Tritonx-100 | 0.375 | 100 | Activity (Staphylococcus aureus [17]): <20%; MIC (Escherichia coli [18]): 8 µM (≈ 6.62 µg/mL); MIC (Pseudomonas aeruginosa [19]): 8 µM (≈ 6.62 µg/mL); Activity (Staphylococcus aureus [20]): Active; Activity (Escherichia coli [21]): >50%; MIC (Escherichia coli [22]): 8 µM; MIC (Escherichia coli [23]): 4 µM; Activity (Klebsiella pneumoniae [24]): Active; Activity (Staphylococcus aureus [25]): Active; MIC (Staphylococcus aureus [26]): 4 µM (≈ 3.31 µg/mL); fractional inhibitory concentration index (FICI) (Staphylococcus aureus [27]): 0.75; MIC (Staphylococcus aureus [28]): 4 µM (≈ 3.31 µg/mL); Activity (Cell membrane [29]): Dose-dependent-effect; Activity (Staphylococcus aureus [30]): Active; Activity (Staphylococcus aureus [31]): Active; Activity (Klebsiella pneumoniae [32]): Active; Activity (Staphylococcus aureus [33]): Active; MIC (Escherichia coli [34]): 8 µM; half-life [35]: 255 min; Ratio [36]: 4.84
2 | CCCCCCCC(=O)NCCCC[C@H](NC(=O)CCCCCCC)C(=O)N[C@@H](CCCCN)C(=O)N[C@@H](CCCCN)C(=O)N[C@@H](Cc1c[nH]c2ccccc12)C(=O)N[C@@H](Cc1c[nH]c2ccccc12)C(N)=O (Octanoyl-K(Octanoyl)KKWW-NH2) | 16 (≈ 16.4 µg/mL) | 8 (≈ 8.21 µg/mL) | 0.562 | Active | 16 (≈ 16.4 µg/mL) | Active | 19.975 | >50 | Active; Compound Showed Stronger Effect Than Positive Control 0.1% Tritonx-100 | 16 (≈ 16.4 µg/mL) | 8 (≈ 8.21 µg/mL) | Active | 8 (≈ 8.21 µg/mL) | Active | Active | Active | 8 (≈ 8.21 µg/mL) | Active | 0.375 | 100 | Activity (Staphylococcus aureus [17]): <20%; MIC (Escherichia coli [18]): 8 µM (≈ 8.21 µg/mL); MIC (Pseudomonas aeruginosa [19]): 16 µM (≈ 16.4 µg/mL); Activity (Staphylococcus aureus [20]): Active; Activity (Escherichia coli [21]): >50%; MIC (Escherichia coli [22]): 4 µM; MIC (Escherichia coli [23]): 8 µM; Activity (Klebsiella pneumoniae [24]): Active; Activity (Staphylococcus aureus [25]): Active; MIC (Staphylococcus aureus [26]): 8 µM (≈ 8.21 µg/mL); fractional inhibitory concentration index (FICI) (Staphylococcus aureus [27]): 0.562; MIC (Staphylococcus aureus [28]): 8 µM (≈ 8.21 µg/mL); Activity (Cell membrane [29]): Dose-dependent-effect; Activity (Staphylococcus aureus [30]): Active; Activity (Staphylococcus aureus [31]): Active; Activity (Klebsiella pneumoniae [32]): Active; Activity (Staphylococcus aureus [33]): Active; MIC (Escherichia coli [34]): 8 µM; half-life [35]: 378 min; Ratio [36]: 4.78
